Measurements from patent publication US20230255873A1, “COSMETIC OR DERMATOLOGICAL PEPTIDE-BASED TREATMENT OF THE SKIN AND ITS INTEGUMENTS” (Sederma, priority 2020, published 2023).
The star is where a group is joined. Palmitoyl = CCCCCCCCCCCCCCCC(=O)*

Columns and labels:
[1] = tested on: equivalent skins; test: Thickness of the stratum corneum on equivalent skins; type: cell-based, human; settings: 2 days of contact, vs control
Protocol: Equivalent skins were prepared by first manufacturing an equivalent dermis, then once it contracted, human keratinocytes were seeded on the surface of the gel. After 14 days, equivalent skins were obtained, on which carbopol gels containing the peptide of the invention or the solvent alone were applied to their surface. After 2 days of contact, the skins were frozen to be sectioned into thin 7 μm slides and then marked in order to visualize the macrostructure of the layers. A quantification of the thickness of the stratum corneum was carried out on photos using an image software.

[2] = tested on: P. acnes; test: Persistent effect on P. acnes growth after removal of the peptide; type: cell-based, Propionibacterium acnes; settings: 48 hours of contact, then fresh medium without peptide
Protocol: This study was also carried out to follow the persistent effect of the peptide according to the invention on P. acnes, and to see if the inhibition can be quickly lifted in the absence of the peptide. The peptide was brought into contact with the cells from the start, as before. After 48 hours of contact and evaluation of the quantity of cells, the cells of all the cases were centrifuged and returned to a fresh medium without solvent or peptide, all the cases having the same quantity of cells. The growth was then assessed again.

[3] = tested on: P. acnes (strain ATCC6919); test: Adhesion of P. acnes to a surface; type: cell-based, Propionibacterium acnes; settings: 48 hours and 72 hours, two concentrations tested
Text: […] At the end of the contact plus more or less the peptide, the quantity of isolated cells, not attached, was estimated by an OD at 600 nm.

[4] = tested on: P. acnes (strain ATCC6919); test: Biofilm formation of P. acnes (crystal violet); type: cell-based, Propionibacterium acnes; settings: 3 days
Protocol: The adhesion of 10^6 CFU/mL of P. acnes (strain ATCC6919) to a surface for 72 hours in an appropriate medium was evaluated. At the end of the contact plus more or less the peptide, the quantity of isolated cells, not attached, was estimated by an OD at 600 nm. The biofilm and the bacteria still attached were labeled with crystal violet solution for 20 min. After rinsing, the quantity of crystal violet remaining on the biofilms was assayed, after extraction, also with a measurement of OD at 600 nm.

[5] = tested on: P. acnes; test: Biofilm stability of P. acnes (peptide added 24 hours after start of culture); type: cell-based, Propionibacterium acnes; settings: peptide added 24 hours after the start of the culture
Protocol: The effect of the peptide on the biofilm stability was also evaluated, the peptide being only added 24 hours after the start of the P. acnes culture.

[6] = tested on: HaCaTs; test: Scratch test on HaCaTs (keratinocyte migration, with or without P. acnes); type: cell-based, human; settings: 24 hours after injury
Protocol: 1.5—Scratch Test on HaCaTs
Principle: HaCats are inoculated in a 6-well plate in a suitable medium until confluence. 24-hour contact with the peptide according to the invention (test cases) or its excipient (control case) in the culture medium is then carried out. After this first step, wounds are made on the cell layers in the experimental wells (with a dedicated tool to make reproducible and small wounds); two wells per case are dedicated to cell counting; rinsing with PBS and an addition of culture medium with or without the peptide according to the invention depending on the case, in the presence or absence of Propionibacterium acnes (100 bacteria for 1 HaCaT cell) are carried out. Photos are taken (to calculate the area of the wound at T0 over a specific area). The cultures are stopped after 24 hours of incubation and photos are taken on the same areas as at T0. A photo processing software (Image J) can calculate for each case the area at T0 and the area recolonized by cells, 24 hours after injury, and establish a ratio.

[7] = tested on: Normal Human Fibroblasts (NHF); test: Immuno-enzymatic tests on normal human fibroblasts (NHF) culture; type: cell-based; settings: 3 days
Protocol: 1.3—Immuno-Enzymatic Tests on Normal Human Fibroblasts (NHF) Culture Principle: Normal Human Fibroblasts (NHF) are cultured in 24-well plates for 24 hours in the proliferation medium until confluence. The cells are then brought into contact or not (control case) with the preferred peptide according to the invention for 3 days in a medium without serum. The culture media are collected and the concentrations of various elements of the dermis or the basement membrane (PIP (carboxy-terminal propeptide of procollagen type I), collagen I, collagen IV, fibronectin) are measured by ELISA assays. An estimate of cell viability is also carried out at the end of culture, in order to weight the data from the ELISA, using an assay with the Hoechst 33258 reagent (DNA intercalator). A study of variances and a Student t test for paired series were carried out to judge the significance of the results.

palmitoyl-lysyl-threonyl-serine-lysyl-serine (Palmitoyl-KTSKS-OH; SMILES CCCCCCCCCCCCCCCC(=O)N[C@@H](CCCCN)C(=O)N[C@H](C(=O)N[C@@H](CO)C(=O)N[C@@H](CCCCN)C(=O)N[C@@H](CO)C(=O)O)[C@@H](C)O) [Pal-KTSKS]
Thickness of the stratum corneum, Variation (%) ([1]; 8 ppm of peptide in carbopol gel): +150%; p < 0.01 | Thickness of the stratum corneum, Variation (%) ([1]; 10 ppm of peptide in carbopol gel): +143%; p < 0.05 | Persistent effect on P. acnes growth once the peptide is removed [2]: no persistent effect | Drop in adhesion of P. acnes [3]: more than 83% | Formation of the biofilm by P. acnes, variation vs control ([4]; 6 ppm): −98% | Formation of the biofilm by P. acnes, variation vs control ([4]; 12 ppm): −99% | Reduction of the biofilm formed at 72 hours vs control (biofilm stability) ([5]; 6 ppm): 89% | Reduction of the biofilm formed at 72 hours vs control (biofilm stability) ([5]; 12 ppm): 93% | Keratinocyte migration, variation compared to the control ([6]; With P. acnes (Reference 2), 5 ppm of peptide): −49.67% | Keratinocyte migration, variation compared to the control ([6]; With P. acnes (Reference 2), 7 ppm of peptide): −66.15% | Keratinocyte migration, variation compared to the control ([6]; Without P. acnes, 5 ppm of peptide): −3% (nsd) | Keratinocyte migration, variation compared to the control ([6]; Without P. acnes, 7 ppm of peptide): −0.36% (nsd) | Collagen I Variation %/control ([7]; 8 ppm): +75%; p < 0.01 | Collagen IV Variation %/control ([7]; 8 ppm): +18%; p < 0.01 | Fibronectin Variation %/control ([7]; 8 ppm): +40%; p < 0.01 | Terminal C peptide of pro-collagen I variation %/control ([7]; 8 ppm): +61%; p < 0.01 | Collagen I Variation %/control ([7]; 10 ppm): +184%; p < 0.01 | Collagen IV Variation %/control ([7]; 10 ppm): +98%; p < 0.01 | Fibronectin Variation %/control ([7]; 10 ppm): +67%; p < 0.01 | Terminal C peptide of pro-collagen I variation %/control ([7]; 10 ppm): +94%; p < 0.01
